Measured values from the supplement of paper PMC11208160.

Assay: recombinant UMI read abundance after kanamycin selection (control-corrected) (log10(CPM+1)); higher = more efficient recombination; extreme values may be limits of the assay; sequences stand for … in AGTGCAGAGAAAATCGGCCAGTTTTCTCTGCCTGCAGTCCGCATGCCGTGGGACCCCTTGGGTTCTAACCTGTTGCCTAGATTTATGCAGCGGACTGCCTTTCTCCCAAAGTGATAAACCGG…AGGTTGGTTTCACT; site = the 11-nt donor
Method in brief: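 Two replicates each of selected and unselected plating were used in this pooled Escherichia coli screen of donor and donor-binding-loop pairs for the IS621 bridge recombinase. Selection was with IPTG (0.07 mM) and kanamycin. Counts of recombinant UMIs, amplified across the donor–target junction, were converted to CPM, averaged, scaled by control-derived factors and reported as log10(CPM+1).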
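Also: IS621 bridge recombinase in Escherichia coli cells against a fixed T5 target plasmid.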

Sequence	recombinant UMI read abundance (log10)
CGCCGTACATGGACCGGTTTTCCCGGTAATCCGTATTTGCT (site CGCCGTACTAT)	0.0196
CGCCGTACATGGACCGGTTTTCCCGGTAATCCGTATTTGCT (site CGCCGTACTCG)	0.111
CGCCGTACATGGACCGGTTTTCCCGGTAATCCGTATTTGCT (site CGCCGTACTGG)	0
CGCCGTACATGGACCGGTTTTCCCGGTAATCCGTATTTGCT (site CGCCGTACTTG)	0.00335
CGCCGTACATGGACCGGTTTTCCCGGTAATCCGTATTTGCT (site CGCCGTCCTAG)	0
CGCCGTACATGGACCGGTTTTCCCGGTAATCCGTATTTGCT (site CGCCGTGCTAG)	0.065
CGCCGTACATGGACCGGTTTTCCCGGTAATCCGTATTTGCT (site CGCCGTTCTAG)	0
CGCCGTACATGGACCGGTTTTCCCGGTAATCCGTATTTGCT (site CGCCTTACTAG)	0
CGCCGTACATGGACCGGTTTTCCCGGTAATCCGTATTTGCT (site CGCGGTACTAG)	0
CGCCGTACATGGACCGGTTTTCCCGGTAATCCGTATTTGCT (site CGCTGTACTAG)	0
CGCCGTACATGGACCGGTTTTCCCGGTAATCCGTATTTGCT (site CGGCGTACTAG)	0.0034
CGCCGTACATGGACCGGTTTTCCCGGTAATCCGTATTTGCT (site CGTCGTACTAG)	0
CGCCGTACATGGACCGGTTTTCCCGGTAATCCGTATTTGCT (site CTCCGTACTAG)	0
CGCCGTACATGGACCGGTTTTCCCGGTAATCCGTATTTGCT (site GGCCGTACTAG)	0.00569
CGCCGTACATGGACCGGTTTTCCCGGTAATCCGTATTTGCT (site TGCCGTACTAG)	0.0708
CGCCGTACATGGACCGGTTTTCCCGGTAATCCGTATTTGTT (site CGCCGTACTAA)	1.23
CGCCGTACATGGACCGGTTTTCCCGGTAATCCGTATTTGTT (site CGCCGTACTAC)	0.00659
CGCCGTACATGGACCGGTTTTCCCGGTAATCCGTATTTGTT (site CGCCGTACTAG)	0.486
CGCCGTACATGGACCGGTTTTCCCGGTAATCCGTATTTGTT (site CGCCGTACTAT)	0.0268
CGCCGTGCATGGACCGGTTTTCCCGGTAATCCGTATTTGCT (site CGCCGTACTAG)	1.29
CGCCGTGCATGGACCGGTTTTCCCGGTAATCCGTATTTGCT (site CGCCGTCCTAG)	0.00563
CGCCGTGCATGGACCGGTTTTCCCGGTAATCCGTATTTGCT (site CGCCGTGCTAG)	1.97
CGCCGTGCATGGACCGGTTTTCCCGGTAATCCGTATTTGCT (site CGCCGTTCTAG)	0.0147

Sequence	recombinant UMI read abundance (log10)
CGCCGTTCATGGACCGGTTTTCCCGGTAATCCGTATTTGCT (site CGCCGTACTAG)	0
CGCCGTTCATGGACCGGTTTTCCCGGTAATCCGTATTTGCT (site CGCCGTCCTAG)	0.00374
CGCCGTTCATGGACCGGTTTTCCCGGTAATCCGTATTTGCT (site CGCCGTGCTAG)	0
CGCCGTTCATGGACCGGTTTTCCCGGTAATCCGTATTTGCT (site CGCCGTTCTAG)	2.41
CGCCTGACATGGACCGGTTTTCCCGGTAATCCGTATTTGAG (site CGCCTGACTCT)	0.947
CGCGAGTCATGGACCGGTTTTCCCGGTAATCCGTATTTGCC (site CGAGAGTCTGG)	0
CGCGAGTCATGGACCGGTTTTCCCGGTAATCCGTATTTGCC (site CGCGAGTCTGG)	2.43
CGCGAGTCATGGACCGGTTTTCCCGGTAATCCGTATTTGCC (site CGGGAGTCTGG)	0
CGCGAGTCATGGACCGGTTTTCCCGGTAATCCGTATTTGCC (site CGTGAGTCTGG)	0.681
CGCGAGTCATGGACCGGTTTTCCCGGTAATCCGTATTTGTC (site CGCGAGTCTGA)	2.8
CGCGGGACATGGACCGGTTTTCCCGGTAATCCGTATTTGGC (site CGCGGGACTGC)	2.25
CGCTAGACATGGACCGGTTTTCCCGGTAATCCGTATTTGAG (site CGATAGACTCT)	0.0154
CGCTAGACATGGACCGGTTTTCCCGGTAATCCGTATTTGAG (site CGCTAGACTCT)	1.64
CGCTAGACATGGACCGGTTTTCCCGGTAATCCGTATTTGAG (site CGGTAGACTCT)	0.181
CGCTAGACATGGACCGGTTTTCCCGGTAATCCGTATTTGAG (site CGTTAGACTCT)	0.00455
CGCTCCTCATGGACCGGTTTTCCCGGTAATCCGTATTTGCC (site CACTCCTCTGG)	2.35
CGCTCCTCATGGACCGGTTTTCCCGGTAATCCGTATTTGCC (site CCCTCCTCTGG)	1.72
CGCTCCTCATGGACCGGTTTTCCCGGTAATCCGTATTTGCC (site CGCTCCTCTGG)	3.14
CGCTCCTCATGGACCGGTTTTCCCGGTAATCCGTATTTGCC (site CTCTCCTCTGG)	2.25
CGCTGTCCATGGACCGGTTTTCCCGGTAATCCGTATTTGCA (site CGCTGTCCTTG)	0.989
CGCTGTGCATGGACCGGTTTTCCCGGTAATCCGTATTTGCA (site CGCTGTGCTTG)	1.87
CGGAACACATGGACCGGTTTTCCCGGTAATCCGTATTTGCA (site AGGAAGACTTG)	0.0118
CGGAACACATGGACCGGTTTTCCCGGTAATCCGTATTTGCA (site CGGAACACTTG)	2.5

Sequence	recombinant UMI read abundance (log10)
CGGAAGACATGGACCGGTTTTCCCGGTAATCCGTATTTGCC (site AGGAAGACTTG)	0
CGGAAGACATGGACCGGTTTTCCCGGTAATCCGTATTTGCC (site CGGAAGACTGG)	2.59
CGGAAGCCATGGACCGGTTTTCCCGGTAATCCGTATTTGTC (site CGGAAGCCTGA)	0
CGGAAGCCATGGACCGGTTTTCCCGGTAATCCGTATTTGTC (site CGGAATCCTAA)	0.00548
CGGAATACATGGACCGGTTTTCCCGGTAATCCGTATTTGTT (site CGGAATACTAA)	2.18
CGGAATACATGGACCGGTTTTCCCGGTAATCCGTATTTGTT (site CGGAATCCTAA)	0
CGGAATACATGGACCGGTTTTCCCGGTAATCCGTATTTGTT (site CGGAATGCTAA)	0
CGGAATACATGGACCGGTTTTCCCGGTAATCCGTATTTGTT (site CGGAATTCTAA)	0
CGGAATCCATGGACCGGTTTTCCCGGTAATCCGTATTTGTG (site CGGAATCCTAA)	0
CGGAATCCATGGACCGGTTTTCCCGGTAATCCGTATTTGTG (site CGGAATCCTCA)	0.656
CGGAATCCATGGACCGGTTTTCCCGGTAATCCGTATTTGTG (site CGGAATCCTGA)	0
CGGAATCCATGGACCGGTTTTCCCGGTAATCCGTATTTGTG (site CGGAATCCTTA)	0
CGGAATCCATGGACCGGTTTTCCCGGTAATCCGTATTTGTT (site ACGAATCCTAA)	0.0109
CGGAATCCATGGACCGGTTTTCCCGGTAATCCGTATTTGTT (site AGAAATCCTAA)	0
CGGAATCCATGGACCGGTTTTCCCGGTAATCCGTATTTGTT (site AGGAAACCTAA)	0
CGGAATCCATGGACCGGTTTTCCCGGTAATCCGTATTTGTT (site AGGAATCCTAA)	0
CGGAATCCATGGACCGGTTTTCCCGGTAATCCGTATTTGTT (site AGGAATCCTAG)	0
CGGAATCCATGGACCGGTTTTCCCGGTAATCCGTATTTGTT (site AGGAATCCTTA)	0
CGGAATCCATGGACCGGTTTTCCCGGTAATCCGTATTTGTT (site AGGAATTCTAA)	0
CGGAATCCATGGACCGGTTTTCCCGGTAATCCGTATTTGTT (site AGGATTCCTAA)	0
CGGAATCCATGGACCGGTTTTCCCGGTAATCCGTATTTGTT (site AGGGATCCTAA)	0.0088
CGGAATCCATGGACCGGTTTTCCCGGTAATCCGTATTTGTT (site CAGAAGCCTAA)	0.0058
